± gives the standard deviation of the averaged measurements.
How the values were obtained:
Experiment in all cases: normalised growth rate inhibition (GR value) relative to DMSO control (GR (1 = untreated growth, 0 = cytostasis, <0 = cytotoxic)); higher = less growth inhibition
Details in all cases: 72 h
[1] = test system: BT20
Method: (§1)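 Breast cancer cell lines (BT-20, Hs 578T, MCF 10A, MCF7, MDA-MB-231, SK-BR-3) were plated in 384-well plates and treated 24 h later with drugs at six concentrations (0.04-10 µM). Viable cells were counted by Hoechst/dead-cell-stain imaging at 0 and 72 h. Counts were normalised to DMSO controls on the same plate to give the relative cell count and the growth-rate inhibition (GR) value; technical plate triplicates were averaged for each biological replicate.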

[2] = test system: MCF10A
Method: as §1

[3] = test system: MCF7
Method: as §1

[4] = test system: MDAMB231
Method: as §1

[5] = test system: HS578T
Method: as §1

[6] = test system: SKBR3
Method: as §1

| Compound | normalised growth rate inhibition ([1]; 0.04 µM) | normalised growth rate inhibition ([1]; 0.12 µM) | normalised growth rate inhibition ([1]; 0.37 µM) | normalised growth rate inhibition ([1]; 1.11 µM) | normalised growth rate inhibition ([1]; 3.33 µM) | normalised growth rate inhibition ([1]; 10 µM) | normalised growth rate inhibition ([2]; 0.04 µM) | normalised growth rate inhibition ([2]; 0.12 µM) | normalised growth rate inhibition ([2]; 0.37 µM) | normalised growth rate inhibition ([2]; 1.11 µM) | normalised growth rate inhibition ([2]; 3.33 µM) | normalised growth rate inhibition ([2]; 10 µM) | normalised growth rate inhibition ([3]; 0.04 µM) | normalised growth rate inhibition ([3]; 0.12 µM) | normalised growth rate inhibition ([3]; 0.37 µM) | normalised growth rate inhibition ([3]; 1.11 µM) | normalised growth rate inhibition ([3]; 3.33 µM) | normalised growth rate inhibition ([3]; 10 µM) | normalised growth rate inhibition ([4]; 0.04 µM) | normalised growth rate inhibition ([4]; 0.12 µM) | normalised growth rate inhibition ([4]; 0.37 µM) | normalised growth rate inhibition ([4]; 1.11 µM) | normalised growth rate inhibition ([4]; 3.33 µM) | normalised growth rate inhibition ([4]; 10 µM) | normalised growth rate inhibition ([5]; 0.04 µM) | normalised growth rate inhibition ([5]; 0.12 µM) | normalised growth rate inhibition ([5]; 0.37 µM) | normalised growth rate inhibition ([5]; 1.11 µM) | normalised growth rate inhibition ([5]; 3.33 µM) | normalised growth rate inhibition ([5]; 10 µM) | normalised growth rate inhibition ([6]; 0.04 µM) | normalised growth rate inhibition ([6]; 0.12 µM) | normalised growth rate inhibition ([6]; 0.37 µM) | normalised growth rate inhibition ([6]; 1.11 µM) | normalised growth rate inhibition ([6]; 3.33 µM) | normalised growth rate inhibition ([6]; 10 µM) |
| --- | --- | --- | --- | --- | --- | --- | --- | --- | --- | --- | --- | --- | --- | --- | --- | --- | --- | --- | --- | --- | --- | --- | --- | --- | --- | --- | --- | --- | --- | --- | --- | --- | --- | --- | --- | --- |
| C#Cc1cccc(Nc2ncnc3cc(OCCOC)c(OCCOC)cc23)c1 [erlotinib] | 0.861 ± 0.025 | 0.879 ± 0.049 | 0.902 ± 0.068 | 0.834 ± 0.032 | 0.856 ± 0.049 | 0.547 ± 0.057 | 0.973 ± 0.013 | 0.829 ± 0.14 | 0.432 ± 0.17 | 0.107 ± 0.053 | 0.132 ± 0.065 | 0.136 ± 0.036 | 0.858 ± 0.069 | 0.899 ± 0.074 | 1.02 ± 0.024 | 1.06 ± 0.047 | 1.04 ± 0.04 | 0.927 ± 0.074 | 0.9 ± 0.058 | 0.937 ± 0.032 | 0.953 ± 0.035 | 0.962 ± 0.036 | 0.969 ± 0.016 | 0.641 ± 0.069 | 0.973 ± 0.015 | 0.965 ± 0.023 | 0.957 ± 0.012 | 0.945 ± 0.019 | 0.918 ± 0.016 | 0.586 ± 0.073 | 0.756 ± 0.077 | 0.885 ± 0.06 | 0.946 ± 0.085 | 0.911 ± 0.072 | 0.868 ± 0.08 | 0.165 ± 0.12 |
| CN(C)C/C=C/C(=O)Nc1cc2c(Nc3ccc(F)c(Cl)c3)ncnc2cc1O[C@H]1CCOC1 [afatinib] | 0.704 ± 0.031 | 0.789 ± 0.017 | 0.814 ± 0.027 | 0.868 ± 0.059 | 0.855 ± 0.035 | 0.0471 ± 0.25 | 0.034 ± 0.14 | 0.0299 ± 0.097 | 0.034 ± 0.07 | 0.0532 ± 0.05 | 0.058 ± 0.067 | 0.0354 ± 0.032 | 0.784 ± 0.14 | 0.81 ± 0.15 | 0.865 ± 0.079 | 0.736 ± 0.11 | 0.603 ± 0.15 | -0.239 ± 0.083 | 0.845 ± 0.14 | 0.873 ± 0.047 | 0.755 ± 0.041 | 0.641 ± 0.09 | 0.537 ± 0.043 | -0.205 ± 0.11 | 0.9498 ± 0.0056 | 0.944 ± 0.032 | 0.944 ± 0.021 | 0.899 ± 0.025 | 0.852 ± 0.059 | -0.152 ± 0.04 | -0.137 ± 0.2 | -0.13 ± 0.17 | -0.117 ± 0.16 | -0.0678 ± 0.2 | -0.0514 ± 0.15 | -0.171 ± 0.11 |
| Cc1cc(C(C)Nc2ccccc2)c2nc(N3CCOCC3)cc(=O)n2c1 (configuration not stated) [TGX-221] | 0.914 ± 0.05 | 0.954 ± 0.032 | 1.01 ± 0.021 | 1.02 ± 0.052 | 1.06 ± 0.054 | 1.05 ± 0.026 | 0.968 ± 0.03 | 0.972 ± 0.039 | 0.971 ± 0.027 | 0.964 ± 0.033 | 0.591 ± 0.38 | 0.957 ± 0.08 | 0.82 ± 0.073 | 0.848 ± 0.018 | 0.96 ± 0.013 | 0.98 ± 0.034 | 0.79 ± 0.15 | 0.822 ± 0.076 | 0.779 ± 0.087 | 0.816 ± 0.083 | 0.826 ± 0.086 | 0.868 ± 0.042 | 0.691 ± 0.19 | 0.868 ± 0.03 | 0.9256 ± 0.0041 | 0.902 ± 0.044 | 0.91 ± 0.02 | 0.891 ± 0.029 | 0.597 ± 0.28 | 0.698 ± 0.093 | 0.681 ± 0.072 | 0.789 ± 0.049 | 0.907 ± 0.034 | 0.963 ± 0.036 | 0.961 ± 0.023 | 0.888 ± 0.03 |
| COc1cc2ncnc(Nc3ccc(F)c(Cl)c3)c2cc1OCCCN1CCOCC1 [gefitinib] | 1.04 ± 0.075 | 0.968 ± 0.11 | 0.94 ± 0.051 | 0.909 ± 0.075 | 0.878 ± 0.05 | 0.762 ± 0.11 | 0.887 ± 0.052 | 0.59 ± 0.11 | 0.265 ± 0.088 | 0.122 ± 0.01 | 0.121 ± 0.024 | 0.105 ± 0.022 | 1.09 ± 0.064 | 1.06 ± 0.069 | 1.05 ± 0.083 | 1.04 ± 0.092 | 1.03 ± 0.069 | 0.808 ± 0.04 | 1.07 ± 0.063 | 1.03 ± 0.068 | 1.019 ± 0.0099 | 1.02 ± 0.038 | 1.01 ± 0.069 | 0.897 ± 0.021 | 0.999 ± 0.0098 | 0.9844 ± 0.0036 | 0.984 ± 0.015 | 0.986 ± 0.014 | 0.987 ± 0.0035 | 0.849 ± 0.015 | 0.909 ± 0.055 | 0.74 ± 0.063 | 0.567 ± 0.076 | 0.418 ± 0.099 | 0.342 ± 0.12 | 0.048 ± 0.14 |
| COC(=O)c1ccc2c(C(=Nc3ccc(N(C)C(=O)CN4CCN(C)CC4)cc3)c3ccccc3)c(O)[nH]c2c1 [nintedanib] | 1.03 ± 0.056 | 1.01 ± 0.088 | 0.857 ± 0.14 | 0.843 ± 0.089 | 0.692 ± 0.079 | 0.508 ± 0.12 | 1.012 ± 0.0058 | 0.9933 ± 0.0087 | 0.9918 ± 0.0074 | 0.99 ± 0.014 | 0.918 ± 0.069 | 0.967 ± 0.029 | 0.999 ± 0.043 | 0.892 ± 0.073 | 0.748 ± 0.12 | 0.545 ± 0.15 | 0.326 ± 0.2 | 0.038 ± 0.22 | 1.08 ± 0.029 | 1.04 ± 0.022 | 0.9908 ± 0.0092 | 0.929 ± 0.067 | 0.842 ± 0.14 | 0.214 ± 0.56 | 0.922 ± 0.029 | 0.872 ± 0.043 | 0.727 ± 0.053 | 0.585 ± 0.14 | 0.386 ± 0.12 | 0.0955 ± 0.12 | 1.09 ± 0.024 | 1.02 ± 0.051 | 0.947 ± 0.028 | 0.835 ± 0.022 | 0.645 ± 0.095 | 0.0487 ± 0.37 |
| Nc1ccc(-c2ccc3ncc4ccc(=O)n(-c5cccc(C(F)(F)F)c5)c4c3c2)cn1 [torin-2] | -0.0219 ± 0.046 | -0.0695 ± 0.021 | -0.128 ± 0.077 | -0.218 ± 0.081 | -0.287 ± 0.077 | -0.251 ± 0.1 | 0.169 ± 0.23 | 0.111 ± 0.1 | 0.0505 ± 0.063 | 0.0367 ± 0.05 | 0.0667 ± 0.053 | 0.0215 ± 0.048 | -0.0044 ± 0.038 | -0.0152 ± 0.09 | -0.0495 ± 0.065 | -0.0476 ± 0.037 | -0.0446 ± 0.024 | -0.111 ± 0.026 | 0.225 ± 0.084 | 0.135 ± 0.11 | 0.0529 ± 0.1 | 0.0249 ± 0.13 | -0.112 ± 0.36 | -0.199 ± 0.18 | 0.192 ± 0.058 | 0.0992 ± 0.089 | -0.0345 ± 0.13 | -0.0453 ± 0.13 | -0.0773 ± 0.12 | -0.135 ± 0.14 | -0.135 ± 0.11 | -0.132 ± 0.11 | -0.158 ± 0.11 | -0.168 ± 0.13 | -0.21 ± 0.077 | -0.286 ± 0.19 |
| CC[C@@H]1C(=O)N(C)c2cnc(Nc3ccc(C(=O)NC4CCN(C)CC4)cc3OC)nc2N1C1CCCC1 [BI-2536] | -0.177 ± 0.15 | -0.203 ± 0.19 | -0.198 ± 0.17 | -0.163 ± 0.16 | -0.143 ± 0.14 | -0.137 ± 0.17 | -0.0473 ± 0.13 | -0.0192 ± 0.14 | 0.00696 ± 0.13 | 1.1e-05 ± 0.11 | -0.0132 ± 0.098 | 0.00366 ± 0.082 | 0.101 ± 0.044 | 0.0593 ± 0.017 | 0.0551 ± 0.044 | 0.0492 ± 0.066 | 0.0223 ± 0.047 | -0.191 ± 0.038 | 0.0155 ± 0.14 | 0.00874 ± 0.1 | 0.00566 ± 0.14 | 0.0242 ± 0.14 | 0.0274 ± 0.12 | -0.0537 ± 0.25 | -0.128 ± 0.11 | -0.125 ± 0.14 | -0.0972 ± 0.11 | -0.0687 ± 0.11 | -0.0582 ± 0.1 | -0.125 ± 0.16 | -0.136 ± 0.22 | -0.151 ± 0.18 | -0.109 ± 0.23 | -0.15 ± 0.23 | -0.158 ± 0.2 | -0.208 ± 0.25 |
